Assay results published in patent US10526327B2, “Histone demethylase inhibitors” (CELGENE QUANTICEL RESEARCH, INC., priority 2013, dated 2020).

These compounds were tested against T1, Jarid1A (Homo sapiens, UniProt P29375) (assay: Jarid1A in vitro enzyme inhibition assay (TR-FRET)).
T1 construct: purchased BPS Bioscience 50110
T1 sequence (P29375 1-1090): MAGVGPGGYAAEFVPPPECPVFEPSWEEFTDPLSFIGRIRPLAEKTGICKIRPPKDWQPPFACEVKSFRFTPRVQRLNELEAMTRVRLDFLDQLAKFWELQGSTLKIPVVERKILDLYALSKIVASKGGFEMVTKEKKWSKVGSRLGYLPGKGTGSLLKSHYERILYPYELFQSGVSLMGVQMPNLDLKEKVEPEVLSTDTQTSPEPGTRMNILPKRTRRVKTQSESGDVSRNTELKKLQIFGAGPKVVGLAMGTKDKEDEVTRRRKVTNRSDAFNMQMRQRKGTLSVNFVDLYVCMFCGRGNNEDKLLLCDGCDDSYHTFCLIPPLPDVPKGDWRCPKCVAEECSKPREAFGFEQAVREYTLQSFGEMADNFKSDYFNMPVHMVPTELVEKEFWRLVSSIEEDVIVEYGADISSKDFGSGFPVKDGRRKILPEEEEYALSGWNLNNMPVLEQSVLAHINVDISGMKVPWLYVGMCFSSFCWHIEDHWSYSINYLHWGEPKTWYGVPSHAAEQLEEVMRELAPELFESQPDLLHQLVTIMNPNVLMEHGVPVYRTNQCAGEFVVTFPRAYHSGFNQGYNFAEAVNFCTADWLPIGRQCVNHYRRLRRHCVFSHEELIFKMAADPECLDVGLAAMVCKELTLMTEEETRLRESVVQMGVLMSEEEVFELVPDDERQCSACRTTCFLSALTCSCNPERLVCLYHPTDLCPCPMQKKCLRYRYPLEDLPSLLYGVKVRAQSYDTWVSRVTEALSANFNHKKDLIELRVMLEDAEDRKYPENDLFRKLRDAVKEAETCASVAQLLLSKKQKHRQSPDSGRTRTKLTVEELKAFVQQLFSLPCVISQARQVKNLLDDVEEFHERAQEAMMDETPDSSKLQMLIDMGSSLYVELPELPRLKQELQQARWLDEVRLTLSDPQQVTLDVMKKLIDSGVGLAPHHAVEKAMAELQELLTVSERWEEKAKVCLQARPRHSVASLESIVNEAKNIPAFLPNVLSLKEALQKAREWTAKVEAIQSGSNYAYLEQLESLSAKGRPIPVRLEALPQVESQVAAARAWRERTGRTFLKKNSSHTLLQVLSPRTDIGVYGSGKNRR
Format: biochemical
Outline: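 Demethylation of 300 nM biotin-H3K4me3 peptide by 1 nM baculovirus-expressed Jarid1A (aa 1–1090) with 2 μM α-ketoglutarate, Fe(II) and ascorbate, pH 7.3, 30 min at room temperature. Stopped with EDTA; H3K4me1-2 product detected by TR-FRET (Eu anti-H3K4me1-2/streptavidin-APC). IC50 fitted from 665/615 ratio over 11-point dilutions.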

Compound | IC50 [µM]
CC(C)COc1nc(O)c2ccncc2n1 [Example 14, 2-(2-methylpropoxy)pyrido[3,4-d]pyrimidin-4-ol] | 0.1 to 1
CCC(C)COc1nc(O)c2ccncc2n1 (stereo not shown) [Example 16, 2-(2-methylbutoxy)pyrido[3,4-d]pyrimidin-4-ol] | 0.1 to 1
CC(COc1nc(O)c2ccncc2n1)c1ccccc1 (stereo not shown) [Example 17, 2-(2-phenylpropoxy)pyrido[3,4-d]pyrimidin-4-ol] | 0.1 to 1
CC(Cc1ccccc1)Oc1nc(O)c2ccncc2n1 (stereo not shown) [Example 19, 2-(1-phenylpropan-2-yloxy)pyrido[3,4-d]pyrimidin-4-ol] | 1 to 10
CN(C)CCCOc1nc(O)c2ccncc2n1 [Example 21, 2-[3-(dimethylamino)propoxy]pyrido[3,4-d]pyrimidin-4-ol] | 0.1 to 1
COCCOc1nc(O)c2ccncc2n1 [Example 22, 2-(2-methoxyethoxy)pyrido[3,4-d]pyrimidin-4-ol] | 0.1 to 1
Cn1cnc(-c2nccc3c(O)nc(OCc4ccccc4C(F)(F)F)nc23)c1 [Example 107, 8-(1-methyl-1H-imidazol-4-yl)-2-{[2-(trifluoromethyl)phenyl]methoxy}pyrido[3,4-d]pyrimidin-4-ol] | 0.1 to 1
Cn1cnc(-c2nccc3c(O)nc(O[C@H](c4ccccc4)C(F)(F)F)nc23)c1 [Example 108, 8-(1-methyl-1H-imidazol-4-yl)-2-[(1R)-2,2,2-trifluoro-1-phenylethoxy]pyrido[3,4-d]pyrimidin-4-ol] | 1 to 10
Cn1cnc(-c2nccc3c(O)nc(O[C@@H](c4ccccc4)C(F)(F)F)nc23)c1 [Example 109, 8-(1-methyl-1H-imidazol-4-yl)-2-[(1S)-2,2,2-trifluoro-1-phenylethoxy]pyrido[3,4-d]pyrimidin-4-ol] | 1 to 10
CCC(Oc1nc(O)c2ccnc(-c3cn(C)cn3)c2n1)C(F)(F)F (stereo not shown) [Example 110, 8-(1-methyl-1H-imidazol-4-yl)-2-[(1,1,1-trifluorobutan-2-yl)oxy]pyrido[3,4-d]pyrimidin-4-ol] | 0.1 to 1
Cn1cnc(-c2nccc3c(O)nc(OCc4ccc(C(F)(F)F)cc4)nc23)c1 [Example 111, 8-(1-methyl-1H-imidazol-4-yl)-2-{[4-(trifluoromethyl)phenyl]methoxy}pyrido[3,4-d]pyrimidin-4-ol] | ≤ 0.1
Cn1cnc(-c2nccc3c(O)nc(OCc4ccc(Cl)cc4)nc23)c1 [Example 112, 2-[(4-chlorophenyl)methoxy]-8-(1-methyl-1H-imidazol-4-yl)pyrido[3,4-d]pyrimidin-4-ol] | 0.1 to 1
Oc1nc(Oc2ccc(Cl)c(Cl)c2)nc2cnccc12 [Example 114, 2-(3,4-dichlorophenoxy)pyrido[3,4-d]pyrimidin-4-ol] | 0.1 to 1
Oc1nc(Oc2cnn(C(c3ccccc3)C3CC3)c2)nc2cnccc12 (stereo not shown) [Example 116, 2-({1-[cyclopropyl(phenyl)methyl]-1H-pyrazol-4-yl}oxy)pyrido[3,4-d]pyrimidin-4-ol] | ≤ 0.1

More lines, now with the values ahead:

IC50 [µM] | Compound
≤ 0.1 | Oc1nc(Oc2cnn(C3CCCN(c4ccc(F)cc4)C3)c2)nc2cnccc12 (stereo in doubt) [Example 169, 2-({1-[(3R)-1-(4-fluorophenyl)piperidin-3-yl]-1H-pyrazol-4-yl}oxy)pyrido[3,4-d]pyrimidin-4-ol]
≤ 0.1 | Oc1nc(Oc2cnn(C3CCN(Cc4ccccc4)CC3)c2)nc2cnccc12 [Example 123, 2-{[1-(1-benzylpiperidin-4-yl)-1H-pyrazol-4-yl]oxy}pyrido[3,4-d]pyrimidin-4-ol]
≤ 0.1 | O=C(C1CCNCC1)N1CC[C@H](n2cc(Oc3nc(O)c4ccncc4n3)cn2)C1 [Example 143, 2-({1-[(3S)-1-(piperidine-4-carbonyl)pyrrolidin-3-yl]-1H-pyrazol-4-yl}oxy)pyrido[3,4-d]pyrimidin-4-ol]
≤ 0.1 | CNCC(=O)N1CC[C@H](n2cc(Oc3nc(O)c4ccncc4n3)cn2)C1 [Example 144, 1-[(3S)-3-[4-({4-hydroxypyrido[3,4-d]pyrimidin-2-yl}oxy)-1H-pyrazol-1-yl]pyrrolidin-1-yl]-2-(methylamino)ethan-1-one]
≤ 0.1 | Oc1nc(Oc2cnn([C@@H]3CCCNC3)c2)nc2cnccc12 [Example 149, 2-({1-[(3R)-piperidin-3-yl]-1H-pyrazol-4-yl}oxy)pyrido[3,4-d]pyrimidin-4-ol]
≤ 0.1 | O=S(=O)(c1ccccc1)N1CCC[C@@H](n2cc(Oc3nc(O)c4ccncc4n3)cn2)C1 [Example 152, 2-({1-[(3R)-1-(benzenesulfonyl)piperidin-3-yl]-1H-pyrazol-4-yl}oxy)pyrido[3,4-d]pyrimidin-4-ol]
≤ 0.1 | Oc1nc(Oc2cnn([C@H]3CCCNC3)c2)nc2cnccc12 [Example 160, 2-({1-[(3S)-piperidin-3-yl]-1H-pyrazol-4-yl}oxy)pyrido[3,4-d]pyrimidin-4-ol]
1 to 10 | Oc1nc(OCc2ccc(C(F)(F)F)cc2)nc2cnccc12 [Example 170, 2-{[4-(trifluoromethyl)phenyl]methoxy}pyrido[3,4-d]pyrimidin-4-ol]
1 to 10 | Oc1nc(OCc2ccccc2Cl)nc2cnccc12 [Example 171, 2-[(2-chlorophenyl)methoxy]pyrido[3,4-d]pyrimidin-4-ol]
1 to 10 | Oc1nc(OCc2c(Cl)cccc2Cl)nc2cnccc12 [Example 172, 2-[(2,6-dichlorophenyl)methoxy]pyrido[3,4-d]pyrimidin-4-ol]
1 to 10 | Oc1nc(OCc2cccc(Cl)c2Cl)nc2cnccc12 [Example 173, 2-[(2,3-dichlorophenyl)methoxy]pyrido[3,4-d]pyrimidin-4-ol]
≤ 0.1 | Oc1nc(OCCc2ccc(Cl)cc2)nc2cnccc12 [Example 174, 2-[2-(4-chlorophenyl)ethoxy]pyrido[3,4-d]pyrimidin-4-ol]
1 to 10 | Oc1nc(OCCc2ccc(Cl)c(Cl)c2)nc2cnccc12 [Example 175, 2-[2-(3,4-dichlorophenyl)ethoxy]pyrido[3,4-d]pyrimidin-4-ol]
1 to 10 | Oc1nc(OC(c2ccccc2)C(F)(F)F)nc2cnccc12 (stereo not shown) [Example 176, 2-(2,2,2-trifluoro-1-phenylethoxy)pyrido[3,4-d]pyrimidin-4-ol]
